Series [1] has as its system HT22 mouse neuronal cell line treated with aggregated beta amyloid 25-35. As to the kind of experiment: Inhibition test of beta amyloid toxicity (MTT). In kind it is cell-based. As to conditions: HT22 cells, 25 μm aggregated beta amyloid 25-35, 18 hours. Here is the method: To determine the inhibitory activity of the compounds prepared in Examples on beta-amyloid toxicity, following test was performed according to the procedure disclosed in the literature (Gillardon, F. et al., Brain Research, 706(1), pp. 169-172, 1996).
HT22 mouse neuronal cell line was incubated in DMEM (Dulbecco's Modified Eagle's Medium, Gibco-BRL) medium supplemented with 10% FBS (Fetal Bovine Serum, Hyclone) and 1% penicillin/streptomycin (Sigma Co.). Prior to test, HT22 cell was incubated on 96 well plates with a density of 5×10^3 cell/well and further incubated in serum free DMEM medium for 1 hour before the treatment of test sample. Various concentration of compounds prepared in Examples used as a test sample was added thereto and incubated for 1 hour. Aggregated beta amyloid 25-35 (US peptide) was treated thereto to the concentration of 25 μm and incubated for 18 hours to induce cell necrosis. 5 mg/ml of MTT (3-(4,5-dimethyl-2-thiazolyl)-2,5-diphenyl-2H-tetrazolium bromide) solution was added each well with 15 μl/well and the well was incubated for 4 hours. Dissolving buffer solution (10% SDS, 50% dimethyl formamide, pH 4.7) was added to each well with 100 μl/well and reacted for overnight. 18 hours after the reaction, the absorbance of solution was determined by microplate reader (SAFIRE, TECAN) at 570 nm/630 nm wavelength (Gillardon, F. et al., Brain Research, 706(1) pp 169-172, 1996).

The target of series [2] is T1, beta amyloid 1-42 (Homo sapiens, UniProt P05067).
T1 construct: Synthetic beta amyloid 1-42 (BACHEM); purchased BACHEM; host or cells: synthetic peptide
T1 sequence (P05067 672-713): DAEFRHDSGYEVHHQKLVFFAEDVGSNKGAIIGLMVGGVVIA
As to the kind of experiment: Inhibition test of beta amyloid aggregation (Thioflavin T fluorescence). As to conditions: FIG. 1. It counts as biochemical. Here is the method:
Synthetic beta amyloid 1-42 (BACHEM) was dissolved in DMSO in order to 250 μm solution and diluted with PBS into 1/10 on fluorescent black plate to induce aggregation. By comparing with inhibition activity of the tanshinone compounds prepared in Example 1 on beta amyloid aggregation, the test sample showing more than 50% inhibition activity at 10 μg/ml was chosen to use and added to react for 1 hour at room temperature. ThT (Thioflavin T) was diluted with 50 mM glycine buffer solution and the diluted solution was added to each well by 150 μl/well. The absorbance was determined by microplate reader (SAFIRE, TECAN) at 450 nm excitation wavelength/480 nm emission wavelength and the inhibition activity of the test sample on beta amyloid aggregation was transformed into IC50.

The structures appear in SMILES notation.

`COc1ccc(-c2oc3ccc(CC(=O)N4CCN(Cc5ccccc5)CC4)cc3c2SC)cc1OC` registered a melting point of 70 °C. The same measure, in the same setting: the result for `COCCc1ccc2oc(-c3ccc(OCOC)c(OC)c3)c(SC)c2c1` [Compound 14a, 5-(2-methoxy-ethyl)-2-(3-methoxy-4-methoxymethoxy-phenyl)-3-methylsulfanyl-benzofuran] reads 70 °C. Molecule `COCCc1ccc2oc(-c3ccc(O)c(OC)c3)c(SC)c2c1` [Compound 15a, 2-methoxy-4-[5-(2-methoxy-ethyl)-3-methylsulfanyl-benzofuran-2-yl]-phenol] returned a melting point of 67 °C. For the same molecule, in series [1], the “inhibition effect on beta-amyloid toxicity” value is “potent inhibition effect”. Besides, the “inhibitory effect on the aggregation of beta amyloid” value in series [2] is on record as “potent inhibition effect”.

`COCCCc1ccc2oc(-c3ccc(O)c(OC)c3)c(SC)c2c1` [Compound 15b, 2-methoxy-4-[5-(3-methoxy-propyl)-3-methylsulfanyl-benzofuran-2yl]-phenol]: the “inhibition effect on beta-amyloid toxicity” value in series [1] is on record as “potent inhibition effect”. In addition, the “inhibitory effect on the aggregation of beta amyloid” value in series [2] was “potent inhibition effect”.

Take `COCCc1ccc2oc(-c3ccc(O)c(OC)c3)cc2c1` [Compound 16a, 2-methoxy-4-[5-(2-methoxy-ethyl)-benzofuran-2yl]-phenol]: the melting point is 180 °C.

For the molecule `COCCc1ccc2oc(-c3ccc(OC)c(OC)c3)c(SC)c2c1` [Compound 17a, 2-(3,4-dimethoxy-phenyl)-5-(2-methoxy-ethyl)-3-methylsulfanyl-benzofuran], the melting point worked out at 61 °C. Same read-out and setting: the result for `COCCc1ccc2oc(-c3ccc(OC)c(OC)c3)cc2c1` [Compound 18a, 2-(3,4-dimethoxy-phenyl)-5-(2-methoxy-ethyl)-benzofuran] reads 81 °C. In the case of `COC(=O)Cc1ccc2oc(-c3ccc(OC)c(OC)c3)c(SC)c2c1` [Compound 31a, [2-(3,4-dimethoxy-phenyl)-3-(methylsulfanyl)-benzofuran-5-yl)acetic acid methyl ester], the melting point came to 91 °C.

Molecule `COC(=O)Cc1ccc2oc(-c3ccc(OC)c(OC)c3)cc2c1` [Compound 32a, [2-(3,4-dimethoxyphenyl)-benzofuran-5-yl]acetic acid methyl ester] displayed a melting point of 119 °C.

`COc1ccc(-c2oc3ccc(CC(=O)O)cc3c2SC)cc1OC` [Compound 33a, [2-(3,4-dimethoxy-phenyl)-3-methylsulfanyl-benzofuran-5-yl]-acetic acid] had a melting point of 165 °C. Still for that read-out and setting: next, `COc1ccc(-c2cc3cc(CC(=O)O)ccc3o2)cc1OC` [Compound 34a, [2-(3,4-dimethoxy-phenyl)-benzofuran-5-yl]-acetic acid]: 202 °C; `COc1ccc(-c2oc3ccc(CC(=O)N4CCN(c5ccccc5)CC4)cc3c2SC)cc1OC` [Compound 37a, 2-[2-(3,4-dimethoxy-phenyl)-3-methylsulfanyl-benzofuran-5-yl)-1-(4-phenyl-piperazin-1-yl)-ethanone]: 160 °C; `COc1ccc(-c2oc3ccc(CCO)cc3c2SC)cc1OC` [Compound 39a, 2-[2-(3,4-dimethoxy-phenyl)-3-methylsulfanyl-benzofuran-5-yl]-ethanol]: 96 °C. Same read-out and setting: next, `COc1ccc(-c2cc3cc(CCO)ccc3o2)cc1OC` [Compound 40a, 2-[2-(3,4-dimethoxy-phenyl)-benzofuran-5-yl]-ethanol]: 122 °C.

As a reminder, the melting point is the temperature of the solid-liquid transition.

The values are drawn from patent US8263649B2, “Benzofuran type derivatives, a composition comprising the same for treating or preventing cognitive dysfunction and the use thereof” (Medifron DBT Co., Ltd., priority 2006, dated 2012).
